Experimental data reported in PubChem BioAssay AID308 (DTP/NCI, 2004).
Values joined by “and” are separate entries in the source; they are usually repeats but may differ in a detail not shown here. Identical values can stand only once. Toxic doses and inconclusive results are not listed.

System: BDF1 mice, L1210 6-MP/6-TG resistant leukemia ip, survival T/C
Test: NCI In Vivo Anticancer Drug Screen. Data for tumor model L1210 Leukemia resistant to 6-MP and 6-Thioguanine; NSC 755, NSC 752 (intraperitoneal) in B6D2F1 (BDF1) mice
Details: endpoint: mean survival time, higher = longer survival
Protocol: The antitumor activity of compounds was measured in mice bearing transplantable tumors. Survival or tumor size were measured and the results are expressed as the measurement made in the treated group (T) divided by the measurement made in the vehicle treated control group (C). The tumor model used in this assay is L1210 Leukemia resistant to 6-MP and 6-Thioguanine; NSC 755, NSC 752 (intraperitoneal) in B6D2F1 (BDF1) mice

[1] = dose: 25.0 mg/kg/injection, schedule: Q01DX Z (ip), vehicle: carboxymethylcellulose (CMC)

## Cc1cc(N(CCCl)CCCl)ccc1N=Nc1ccccc1C(=O)O
dose: 4.5 mg/kg/injection, schedule: Q01DX Z (ip), vehicle: carboxymethylcellulose (CMC)
  T/C: 119 % of control
dose: 9.0 mg/kg/injection, schedule: Q01DX Z (ip), vehicle: carboxymethylcellulose (CMC)
  T/C: 124 % of control
dose: 18.75 mg/kg/injection, schedule: Q01DX Z (ip), vehicle: carboxymethylcellulose (CMC)
  T/C: 114 % of control
[1]
  T/C: 123 % of control
dose: 37.5 mg/kg/injection, schedule: Q01DX Z (ip), vehicle: carboxymethylcellulose (CMC)
  T/C: 90 % of control

## NC(Cc1ccc(N(CCCl)CCCl)cc1)C(=O)O (centres undefined)
dose: 0.5 mg/kg/injection, schedule: Q01DX Z (ip), vehicle: carboxymethylcellulose (CMC)
  T/C: 163 % of control
dose: 0.75 mg/kg/injection, schedule: Q01DX Z (ip), vehicle: carboxymethylcellulose (CMC)
  T/C: 155 % of control
dose: 1.0 mg/kg/injection, schedule: Q01DX Z (ip), vehicle: carboxymethylcellulose (CMC)
  T/C: 188 % of control
dose: 2.5 mg/kg/injection, schedule: Q01DX Z (ip), vehicle: carboxymethylcellulose (CMC)
  T/C: 195 % of control
dose: 3.75 mg/kg/injection, schedule: Q01DX Z (ip), vehicle: carboxymethylcellulose (CMC)
  T/C: 195 % of control
dose: 5.0 mg/kg/injection, schedule: Q01DX Z (ip), vehicle: carboxymethylcellulose (CMC)
  T/C: 155 % of control
dose: 7.5 mg/kg/injection, schedule: Q01DX Z (ip), vehicle: carboxymethylcellulose (CMC)
  T/C: 119 % of control

## COCCCNS(=O)(=O)c1ncnc2nc[nH]c12
[1]
  T/C: 92 % of control
dose: 100.0 mg/kg/injection, schedule: Q01DX Z (ip), vehicle: carboxymethylcellulose (CMC)
  T/C: 90 % of control

## NC(=O)N(CCCl)N=O
dose: 0.47 mg/kg/injection, schedule: Q01DX Z (ip), vehicle: saline
  T/C: 220 % of control
dose: 0.93 mg/kg/injection, schedule: Q01DX Z (ip), vehicle: saline
  T/C: 265 % of control
dose: 1.25 mg/kg/injection, schedule: Q01DX Z (ip), vehicle: saline
  T/C: 236 % of control
dose: 1.87 mg/kg/injection, schedule: Q01DX Z (ip), vehicle: saline
  T/C: 158 % of control
dose: 5.0 mg/kg/injection, schedule: Q01DX Z (ip), vehicle: saline
  T/C: 92 % of control

## C(=C\c1ccccc1)/CSc1ncnc2nc[nH]c12
dose: 62.0 mg/kg/injection, schedule: Q01DX015 (ip), vehicle: carboxymethylcellulose (CMC)
  T/C: 98 % of control
dose: 125.0 mg/kg/injection, schedule: Q01DX015 (ip), vehicle: carboxymethylcellulose (CMC)
  T/C: 96 % of control
dose: 250.0 mg/kg/injection, schedule: Q01DX015 (ip), vehicle: carboxymethylcellulose (CMC)
  T/C: 91 % of control
dose: 500.0 mg/kg/injection, schedule: Q01DX015 (ip), vehicle: carboxymethylcellulose (CMC)
  T/C: 90 % of control
dose: 1000.0 mg/kg/injection, schedule: Q01DX015 (ip), vehicle: carboxymethylcellulose (CMC)
  T/C: 90 % of control

## C=CCn1cnc2c(=S)nc[nH]c21
dose: 18.0 mg/kg/injection, schedule: Q01DX015 (ip), vehicle: other
  T/C: 103 % of control
dose: 26.0 mg/kg/injection, schedule: Q01DX015 (ip), vehicle: other
  T/C: 108 % of control
dose: 40.0 mg/kg/injection, schedule: Q01DX015 (ip), vehicle: other
  T/C: 101 % of control
dose: 60.0 mg/kg/injection, schedule: Q01DX015 (ip), vehicle: other
  T/C: 95 % of control

## O=NN(CCCl)C(=O)NCCCl
dose: 2.0 mg/kg/injection, schedule: Q01DX015 (ip), vehicle: saline
  T/C: 166 % of control and 181 % of control and 196 % of control
dose: 2.6 mg/kg/injection, schedule: Q01DX015 (ip), vehicle: saline
  T/C: 168 % of control
dose: 6.0 mg/kg/injection, schedule: Q01DX015 (ip), vehicle: saline
  T/C: 156 % of control
dose: 8.0 mg/kg/injection, schedule: Q01DX015 (ip), vehicle: saline
  T/C: 151 % of control and 157 % of control and 185 % of control
dose: 9.0 mg/kg/injection, schedule: Q01DX015 (ip), vehicle: saline
  T/C: 164 % of control
dose: 13.5 mg/kg/injection, schedule: Q01DX015 (ip), vehicle: saline
  T/C: 123 % of control
